The values that follow come from US8377918B2 (ACC Therapeutics Inc, priority 2005, dated 2013).

Where two headings read alike, the source gives them in different places.

For assay [1], the system named is A2780/CP70 cells. Kind of assay: MTT cell proliferation assay, A2780/CP70 ovarian cancer cells. It counts as cell-based, human. As to conditions: for IC50: 24 h. As to the method:
(§1) FIG. 1. […] (A) A2780/CP70 cells and human fibroblast GM847 cells were seeded in 96-well plate at 4×10^3 cells per well and incubated overnight. […] The cells were incubated for 24 h. Cell proliferation was determined by MTT reduction. […] Cells were trypsinized, harvested, washed once with PBS buffer, and stained using the Annexin-V-Folus Kit as per the manufacture's instructions. […] After incubation, all cells were collected and total DNA was isolated. Eight (8) μg of DNA was resolved on 1.8% agarose gel. […] (D) Treatment of GM847 cells was the same as that of 5D. […] Cleavage of caspase-3 and PARP was detected by western-blot.
FIG. 3. […] A2780/CP70 cells were seeded in 96-well plates and incubated overnight. The old medium was discarded and fresh medium with cisplatin (CDDP) in the presence or absence of apigenin (Api) was added. In 24 h, the cell proliferation was determined by means of MTT reduction method.
FIG. 9. […] A, Cisplatin-resistant ovarian cancer cell line A2780/CP70, and B, prostate cancer cells PC-3 were seeded in 96-well plates at 1×10^4 cells/well and incubated overnight. […] In 24 h, the cell proliferation was assayed by using a MTT assay kit. *indicates significant difference compared to cisplatin alone (p<0.01).
For orientation: Tetrazolium dyes change colour on reduction, which living cells bring about.

Another assay concerns PC-3 cells. Kind of assay: MTT cell proliferation assay, PC-3 prostate cancer cells. It counts as cell-based, human. How it is done: (§2) FIG. 8. […] Prostate cancer cells PC-3 and DU145 were seeded in 96-well plates at 1×10^4 cells/well. […] The cell proliferation was assayed by culturing the cells for 24 h, then adding 10 μl of MTT reagent with incubation for 2 h. The reaction was stopped by adding 100 μl of solubilization solution. The relative cell proliferation was obtained by the reading at 590 nm which was recorded in a spectrophotometer, and normalized to the value of control.
FIG. 9. […] A, Cisplatin-resistant ovarian cancer cell line A2780/CP70, and B, prostate cancer cells PC-3 were seeded in 96-well plates at 1×10^4 cells/well and incubated overnight.
(§3) FIG. 17. […] A, the prostate cancer cells PC-3 and DU145; B, colon cancer cells Colo-205 and HCT-116; C, lung cancer cells A549 and H460 cells were plated at 1×10^4 cells per well in a 96 well plate in 100 μl of media.
FIG. 18. […] A and B, the prostate cancer cells PC-3 and DU145; C, colon cancer cells Colo-205 and HCT-116; D, lung cancer cells A549 and H460 cells were plated at 1×10^4 cells per well in a 96 well plate in 100 μl of media. […] The cell proliferation was analyzed by MTT assay.
(§4) FIG. 19. […] A, prostate cancer cells PC-3; and B, DU145 cells were plated at 1×10^4 cells per well in a 96 well plate in 100 μl of media. […] Cell proliferation was examined by MTT assay.
(§5) FIG. 23. […] Cell proliferation was examined by MTT assay.

In a further assay the test system is Colo-205 cells. Put plainly: MTT cell proliferation assay, Colo-205 colon cancer cells. As to conditions: colo-205, 15 μM apigenin, 24 h. The assay is classed as cell-based, human. As to the method:
FIG. 17. […] A, the prostate cancer cells PC-3 and DU145; B, colon cancer cells Colo-205 and HCT-116; C, lung cancer cells A549 and H460 cells were plated at 1×10^4 cells per well in a 96 well plate in 100 μl of media. […] FIG. 20. […] A, the prostate cancer cells PC-3 and DU145; B, colon cancer cells Colo-205 and HCT-116; C, lung cancer cells A549 and H460 cells were plated at 1×10^4 cells per well in a 96 well plate. […] Cell proliferation was examined by MTT assay. […] FIG. 22. […] A, colon cancer cells Colo-205 and HCT-116; B, lung cancer cells A549 and H460 cells were plated at 1×10^4 cells per well in a 96 well plate the day before the treatment. […] Cell proliferation was examined by MTT assay. […] FIG. 24. […] The IC50 values for inhibiting cell proliferation were calculated from cell proliferation assay as described above.

For another assay, the system named is H460 cells. Kind of assay: MTT cell proliferation assay, H460 lung cancer cells. Particulars: H460, 15 μM apigenin, 24 h. The assay is classed as cell-based, human. As to the method: FIG. 17. […] A, the prostate cancer cells PC-3 and DU145; B, colon cancer cells Colo-205 and HCT-116; C, lung cancer cells A549 and H460 cells were plated at 1×10^4 cells per well in a 96 well plate in 100 μl of media. […] FIG. 18. […] A and B, the prostate cancer cells PC-3 and DU145; C, colon cancer cells Colo-205 and HCT-116; D, lung cancer cells A549 and H460 cells were plated at 1×10^4 cells per well in a 96 well plate in 100 μl of media. […] The cell proliferation was analyzed by MTT assay. […] FIG. 22. […] A, colon cancer cells Colo-205 and HCT-116; B, lung cancer cells A549 and H460 cells were plated at 1×10^4 cells per well in a 96 well plate the day before the treatment. […] Cell proliferation was examined by MTT assay. […] FIG. 25.

Assay [2] relates to A2780/CP70 cells. Put plainly: Annexin V apoptosis assay, A2780/CP70. Particulars: A2780/CP70, 10 μM cisplatin, 24 h. The assay is classed as cell-based, human. As to the method:
as §1
FIG. 10. […] The cisplatin-resistant ovarian cancer A2780/CP70 cells were seeded in a petri dish. […] After treatment, the cells were collected and the relative cellular apoptosis was analyzed by Annexin V Kit (Roche), and compared to the control.

The test system of assay [3] is tumors induced by A2780/CP70 cells. Kind of assay: Tumor weight of A2780/CP70 tumors on CAM. Particulars: 2.5 μM CDDP, 10 days. It counts as in vivo, chicken embryo. How it is done: (§6) FIG. 4. […] The A2780/CP70 cells were seeded into 100 mm dish and grown to 90-100% confluence. […] In 10 days, the tumors were harvested and weighed. The blood vessel numbers of the tumor were counted under×100. At least five areas were determined. The data are mean±SD from two experiments (n=8). A, representative tumor morphology; B, tumor weight; C, relative numbers of blood vessels.

Assay [4] shares this test system. Put plainly: Blood vessel numbers of A2780/CP70 tumors on CAM. The assay is classed as in vivo, chicken embryo. As to conditions: 2.5 μM CDDP alone, 10 days. How it is done: as §6
The test system of assay [5] is PC-3 prostate cancer cells. Put plainly: Cell survival by MTT reduction assay with taxol, PC-3. The assay is classed as cell-based, human. Particulars: for IC50: Homo sapiens, 48 h, read-out: IC50 of cell viability (cell survival). As to the method: (§7) FIG. 11. […] PC-3 prostate cancer cells and A2780/CP70 ovarian cancer cells were seeded in 96-well plates and incubated overnight. […] After 48 h, cell survival was determined by means of MTT reduction assay.

Assay [6] has as its system A2780/CP70 ovarian cancer cells. Put plainly: Cell survival by MTT reduction assay with taxol, A2780/CP70. The assay is classed as cell-based, human. Particulars: for IC50: Homo sapiens, A2780/CP70, 48 h, 48 h, read-out: IC50 of cell viability (cell survival). How it is done:
as §7

A further assay concerns DU145 cells. Kind of assay: MTT cell proliferation assay, DU145 prostate cancer cells. Particulars: DU145, 15 μM apigenin, 24 h. The assay is classed as cell-based, human. How it is done:
as §2, §3, §4
FIG. 21. […] A, the prostate cancer cells PC-3 and DU145; B and C, colon cancer cells Colo-205 and HCT-116 were plated at 1×10^4 cells per well in a 96 well plate in 100 μl of media a day before the treatment.
as §5

Turning to `N.N.[Cl][Pt][Cl]` [cisplatin], the “reduction of cisplatin IC50 by apigenin” value in the assay with A2780/CP70 cells [1] (A2780/CP70, 10 μM apigenin) is reported as 4 fold; in the assay with PC-3 cells (PC-3, 10 μM apigenin), 7 fold. The IC50 with A2780/CP70 cells [1] (A2780/CP70, cisplatin alone, read-out: concentration of cisplatin needed to inhibit 50% of cell proliferation (IC50)) was roughly 20000 nM; in the assay on A2780/CP70 cells [1] (A2780/CP70, with addition of 10 μM apigenin, read-out: IC50 of cisplatin for cell proliferation), 5000 nM; with PC-3 cells (PC-3, in the presence of 10 μM apigenin, 24 h, read-out: cisplatin concentration giving 50% inhibition of cell proliferation) it was 3000 nM. Also, the “decrease of IC50 by apigenin” value in the assay on Colo-205 cells worked out at 3 fold. Moreover, in the assay on H460 cells, the “decrease of IC50 by combination with apigenin” value amounted to 20 fold. Moreover, in the assay with A2780/CP70 cells [2], the “apoptosis” value was “low levels of apoptosis”. Besides, in assay [3], the “effect on tumor growth” value is “slightly inhibited tumor growth”. Also, the “effect on blood vessel formation” value in assay [4] was “slightly inhibited the blood vessel formation”.

For the compound `CC(=O)O[C@H]1C(=O)[C@@]2(C)[C@H]([C@H](OC(=O)c3ccccc3)[C@]3(O)C[C@H](OC(=O)[C@H](O)[C@@H](NC(=O)c4ccccc4)c4ccccc4)C(C)=C1C3(C)C)[C@]1(OC(C)=O)CO[C@@H]1C[C@@H]2O` [taxol], the IC50 stood at 577 nM in assay [5] (PC-3, taxol alone); 50.3 nM in assay [5] (PC-3, taxol with 20 μM apigenin); 503 nM in assay [6] (A2780/CP70, taxol alone); 225 nM in [6] (A2780/CP70, taxol with 20 μM apigenin). Besides, the “taxol IC50 with apigenin, fold less than taxol alone” value in [5] (PC-3, 20 μM apigenin) is 11 fold; in assay [6] (A2780/CP70, 20 μM apigenin), 2 fold.

In the case of `COc1cccc2c1C(=O)c1c(O)c3c(c(O)c1C2=O)C[C@@](O)(C(=O)CO)C[C@@H]3O[C@H]1C[C@H](N)[C@H](O)[C@H](C)O1` [doxorubicin], in the assay with PC-3 cells (PC-3, 15 μM apigenin, 24 h), the “reduction of IC50 of doxorubicin by apigenin” value is reported as 2 fold. The “decrease of IC50 by combination with apigenin” value with H460 cells is listed as 20 fold.

As for `O=c1[nH]cc(F)c(=O)[nH]1` [fluorouracil, reference compound], in the assay with DU145 cells, the “reduction of IC50 of fluorouracil by apigenin” value is 70%.

Turning to `CO[C@@]12[C@H](COC(N)=O)C3=C(C(=O)C(C)=C(N)C3=O)N1C[C@@H]1N[C@@H]12` [mitomycin C], the “decrease of IC50 by apigenin” value in the assay on Colo-205 cells was found to be 7 fold.
